Blank lines part the entries; values can stand above or below the compound they belong to. Active and inactive are the calls of the source.
Assays:
[1] = molecular target: T1, Corticotropin-releasing factor receptor 2/Corticotropin-releasing factor-binding protein (Homo sapiens, UniProt P24387+Q13324); test: Dose Response confirmation of uHTS hits for small molecule antagonists of the CRF-binding protein and CRF-R2 receptor complex.; format: functional; conditions: read-out: IC50_Mean
T1 sequence (Q13324 whole entry): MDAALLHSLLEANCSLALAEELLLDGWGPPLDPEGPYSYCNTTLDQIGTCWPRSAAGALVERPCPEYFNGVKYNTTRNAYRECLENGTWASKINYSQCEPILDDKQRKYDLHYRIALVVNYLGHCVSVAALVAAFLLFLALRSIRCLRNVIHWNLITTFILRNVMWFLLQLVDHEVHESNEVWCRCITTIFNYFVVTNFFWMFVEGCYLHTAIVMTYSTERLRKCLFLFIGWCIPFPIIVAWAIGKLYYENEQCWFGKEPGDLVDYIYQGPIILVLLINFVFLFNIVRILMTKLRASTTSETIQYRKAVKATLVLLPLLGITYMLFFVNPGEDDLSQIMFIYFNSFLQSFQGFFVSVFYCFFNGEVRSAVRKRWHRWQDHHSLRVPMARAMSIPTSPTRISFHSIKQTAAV
T1 sequence (P24387 whole entry): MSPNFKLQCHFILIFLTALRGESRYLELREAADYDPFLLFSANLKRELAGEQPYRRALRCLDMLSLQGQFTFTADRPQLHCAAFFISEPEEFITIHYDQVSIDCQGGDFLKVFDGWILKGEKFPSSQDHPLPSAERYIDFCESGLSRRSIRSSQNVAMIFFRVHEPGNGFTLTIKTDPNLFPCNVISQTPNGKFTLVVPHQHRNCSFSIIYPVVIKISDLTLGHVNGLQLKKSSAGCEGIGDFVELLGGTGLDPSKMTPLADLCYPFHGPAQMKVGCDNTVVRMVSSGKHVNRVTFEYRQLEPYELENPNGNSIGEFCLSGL

[2] = molecular target: T1, Corticotropin-releasing factor receptor 2/Corticotropin-releasing factor-binding protein; test: activators of CRF receptor 2 with binding protein – uHTS hits, confirmation (AID 602473); format: functional; conditions: read-out: EC50_Mean
[3] = CRF-BP/CRF-R2 complex antagonists, dose response, cell-based, uHTS hits, 384-well (AID 651639); format: functional, Homo sapiens; conditions: read-out: IC50_Mean
[4] = molecular target: Nuclear receptor subfamily 5 group A member 2 (Homo sapiens, UniProt O00482); format: functional, cell-based;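 note: HEK293T cells transfected with LRH-1 and a StAR promoter luciferase reporter; potency for inhibitors that lower LRH-1 driven reporter light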
Nuclear receptor subfamily 5 group A member 2, sequence (O00482 whole entry): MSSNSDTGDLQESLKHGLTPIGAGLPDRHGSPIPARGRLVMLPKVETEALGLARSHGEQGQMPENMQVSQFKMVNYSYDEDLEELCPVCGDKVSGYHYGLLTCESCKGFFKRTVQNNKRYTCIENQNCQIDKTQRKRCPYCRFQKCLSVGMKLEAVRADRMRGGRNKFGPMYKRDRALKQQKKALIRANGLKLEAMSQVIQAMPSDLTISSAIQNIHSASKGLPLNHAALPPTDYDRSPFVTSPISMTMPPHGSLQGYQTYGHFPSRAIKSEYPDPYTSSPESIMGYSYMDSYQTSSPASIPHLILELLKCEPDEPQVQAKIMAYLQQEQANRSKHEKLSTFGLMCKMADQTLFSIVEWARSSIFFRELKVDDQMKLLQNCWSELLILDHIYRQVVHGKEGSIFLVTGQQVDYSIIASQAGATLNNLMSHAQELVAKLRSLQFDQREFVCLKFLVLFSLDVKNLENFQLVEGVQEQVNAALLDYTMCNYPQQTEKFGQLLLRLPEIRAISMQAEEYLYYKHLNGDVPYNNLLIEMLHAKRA

Steroidogenic factor 1 = Steroidogenic factor 1 (Homo sapiens, UniProt Q13285); test: Counterscreen for inverse agonists of the liver receptor homolog-1 (LRH-1; NR5A2): Luminescence-based cell-based high throughput dose response assay to identify inverse agonists of the Steroidogenic Factor 1 Nuclear Receptor (SF1; NR5A1).; format: functional
Steroidogenic factor 1, sequence (Q13285 whole entry): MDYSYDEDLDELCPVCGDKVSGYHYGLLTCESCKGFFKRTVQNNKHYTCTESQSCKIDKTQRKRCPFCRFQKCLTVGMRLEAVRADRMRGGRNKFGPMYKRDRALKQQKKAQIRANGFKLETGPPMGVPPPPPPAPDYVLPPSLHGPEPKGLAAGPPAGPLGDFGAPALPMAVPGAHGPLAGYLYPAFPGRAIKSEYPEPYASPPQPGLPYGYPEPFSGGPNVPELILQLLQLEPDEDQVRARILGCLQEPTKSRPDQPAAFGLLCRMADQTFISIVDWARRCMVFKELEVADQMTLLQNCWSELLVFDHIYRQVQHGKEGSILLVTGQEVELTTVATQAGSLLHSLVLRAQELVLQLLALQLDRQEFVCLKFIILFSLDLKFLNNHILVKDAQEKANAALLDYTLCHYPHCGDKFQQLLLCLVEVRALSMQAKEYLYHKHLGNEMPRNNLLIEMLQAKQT

[5] = StAR promoter reporter inhibition counter-screen, dose response, counter-screen for LRH-1 inverse agonist project, cell-based, luminescence, luciferase reporter (AID 651969); format: functional
[6] = molecular target: T2, Sentrin-specific protease 8 (Homo sapiens, UniProt Q96LD8); format: functional
T2 sequence (Q96LD8 whole entry): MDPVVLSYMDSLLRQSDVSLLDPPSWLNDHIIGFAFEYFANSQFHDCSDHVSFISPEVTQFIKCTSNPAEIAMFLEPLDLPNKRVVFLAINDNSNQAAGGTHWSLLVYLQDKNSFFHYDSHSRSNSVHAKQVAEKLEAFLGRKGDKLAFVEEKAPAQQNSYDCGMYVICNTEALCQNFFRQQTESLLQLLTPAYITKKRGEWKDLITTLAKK

[7] = molecular target: T2, Sentrin-specific protease 8; format: functional; remark: listed apart in the source
Aminopeptidase N = molecular target: T3, Aminopeptidase N (Plasmodium falciparum FcB1/Columbia, UniProt O96935); test: P. falciparum M1AAP inhibitors, biochemical, fluorogenic H-Leu-NHMec substrate, 1536-well (AID 1445); set-up: species or system Plasmodium falciparum 3D7, 3D7
T3 sequence (O96935 whole entry): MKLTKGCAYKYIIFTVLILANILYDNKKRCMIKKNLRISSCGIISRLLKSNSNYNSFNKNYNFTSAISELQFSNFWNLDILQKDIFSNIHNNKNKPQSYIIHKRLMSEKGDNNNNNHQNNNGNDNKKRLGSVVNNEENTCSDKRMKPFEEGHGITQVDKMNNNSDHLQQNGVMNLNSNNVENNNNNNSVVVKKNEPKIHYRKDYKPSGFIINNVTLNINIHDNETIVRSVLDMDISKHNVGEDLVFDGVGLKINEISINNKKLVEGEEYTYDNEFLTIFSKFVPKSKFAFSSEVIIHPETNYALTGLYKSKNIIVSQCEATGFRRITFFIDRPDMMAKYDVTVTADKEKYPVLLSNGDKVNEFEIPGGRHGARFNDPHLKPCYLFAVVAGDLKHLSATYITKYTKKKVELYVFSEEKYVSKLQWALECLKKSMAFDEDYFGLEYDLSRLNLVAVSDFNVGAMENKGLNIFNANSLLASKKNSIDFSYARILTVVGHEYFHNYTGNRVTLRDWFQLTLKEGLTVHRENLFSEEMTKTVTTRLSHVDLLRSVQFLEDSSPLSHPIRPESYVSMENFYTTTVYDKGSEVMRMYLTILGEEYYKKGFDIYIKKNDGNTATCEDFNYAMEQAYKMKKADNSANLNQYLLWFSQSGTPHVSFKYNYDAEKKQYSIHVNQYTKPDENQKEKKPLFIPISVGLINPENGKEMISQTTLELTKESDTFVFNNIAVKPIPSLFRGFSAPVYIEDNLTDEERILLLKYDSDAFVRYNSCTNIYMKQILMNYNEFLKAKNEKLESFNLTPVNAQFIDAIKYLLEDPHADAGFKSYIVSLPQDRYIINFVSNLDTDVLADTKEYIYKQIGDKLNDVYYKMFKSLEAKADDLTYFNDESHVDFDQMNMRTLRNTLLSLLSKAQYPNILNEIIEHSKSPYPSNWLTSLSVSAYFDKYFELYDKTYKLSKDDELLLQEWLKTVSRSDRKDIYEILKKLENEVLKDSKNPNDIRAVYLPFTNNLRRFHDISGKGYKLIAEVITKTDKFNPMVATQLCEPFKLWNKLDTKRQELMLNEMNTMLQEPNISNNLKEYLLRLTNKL

Large T antigen = Large T antigen (Simian virus 40, UniProt P03070); format: functional, Betapolyomavirus macacae;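 note: Confirmatory-stage PubChem screen for compounds that inhibit SV40 T antigen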
Large T antigen, sequence (P03070 whole entry): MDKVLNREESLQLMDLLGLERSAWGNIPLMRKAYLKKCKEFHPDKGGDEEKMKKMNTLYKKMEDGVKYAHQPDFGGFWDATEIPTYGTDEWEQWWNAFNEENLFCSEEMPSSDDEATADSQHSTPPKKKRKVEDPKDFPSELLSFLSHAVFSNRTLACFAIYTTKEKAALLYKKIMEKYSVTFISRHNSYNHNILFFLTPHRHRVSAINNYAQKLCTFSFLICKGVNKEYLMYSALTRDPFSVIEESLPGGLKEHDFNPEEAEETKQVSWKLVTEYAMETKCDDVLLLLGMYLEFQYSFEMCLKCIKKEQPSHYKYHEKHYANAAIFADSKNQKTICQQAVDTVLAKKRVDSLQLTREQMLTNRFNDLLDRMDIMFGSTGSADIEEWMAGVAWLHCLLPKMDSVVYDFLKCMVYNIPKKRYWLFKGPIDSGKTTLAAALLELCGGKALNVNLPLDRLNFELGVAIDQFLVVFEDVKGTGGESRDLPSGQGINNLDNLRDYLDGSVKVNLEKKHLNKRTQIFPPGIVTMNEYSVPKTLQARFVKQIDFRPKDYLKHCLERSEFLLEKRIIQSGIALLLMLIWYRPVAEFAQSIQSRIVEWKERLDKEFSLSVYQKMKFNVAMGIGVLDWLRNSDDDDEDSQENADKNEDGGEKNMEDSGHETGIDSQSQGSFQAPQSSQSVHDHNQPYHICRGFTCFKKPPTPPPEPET

Genome polyprotein = Genome polyprotein (dengue virus type 2, UniProt P29990); test: Dengue-2 NS5 methyltransferase inhibitors, primary screen, biochemical, confirmation dose response (AID 588689); format: functional
Genome polyprotein, sequence (P29990 2492-3391 limits assumed): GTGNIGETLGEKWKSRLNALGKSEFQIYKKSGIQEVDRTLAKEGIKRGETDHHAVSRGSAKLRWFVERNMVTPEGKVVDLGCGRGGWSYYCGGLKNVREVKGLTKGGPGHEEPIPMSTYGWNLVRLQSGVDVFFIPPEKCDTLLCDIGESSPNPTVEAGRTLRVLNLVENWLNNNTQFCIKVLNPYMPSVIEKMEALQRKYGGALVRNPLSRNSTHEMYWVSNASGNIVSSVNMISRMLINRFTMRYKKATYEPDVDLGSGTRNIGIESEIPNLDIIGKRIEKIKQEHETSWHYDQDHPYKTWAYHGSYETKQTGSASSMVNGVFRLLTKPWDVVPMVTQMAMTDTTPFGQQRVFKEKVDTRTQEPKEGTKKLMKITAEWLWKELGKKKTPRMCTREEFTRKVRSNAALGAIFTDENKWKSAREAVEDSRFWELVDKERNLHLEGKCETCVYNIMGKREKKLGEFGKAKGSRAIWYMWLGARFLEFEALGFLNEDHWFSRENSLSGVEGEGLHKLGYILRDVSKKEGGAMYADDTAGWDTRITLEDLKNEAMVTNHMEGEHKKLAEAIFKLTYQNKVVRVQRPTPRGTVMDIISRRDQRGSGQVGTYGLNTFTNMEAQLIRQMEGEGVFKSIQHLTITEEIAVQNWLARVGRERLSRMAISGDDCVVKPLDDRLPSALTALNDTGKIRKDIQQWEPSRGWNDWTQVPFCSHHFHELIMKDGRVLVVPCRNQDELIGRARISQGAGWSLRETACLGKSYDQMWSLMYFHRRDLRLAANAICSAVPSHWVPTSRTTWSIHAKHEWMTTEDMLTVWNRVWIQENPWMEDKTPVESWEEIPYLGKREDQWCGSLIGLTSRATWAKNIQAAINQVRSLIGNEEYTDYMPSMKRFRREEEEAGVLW

[8] = molecular target: T4, Carboxy-terminal domain RNA polymerase II polypeptide A small phosphatase 1 (Homo sapiens, UniProt Q9GZU7); test: inhibitors of CTDSP1, concentration-response testing, biochemical assay, absorbance-based, actives from ultra-high-throughput screening (AID 540297); format: functional
T4 sequence (Q9GZU7 whole entry): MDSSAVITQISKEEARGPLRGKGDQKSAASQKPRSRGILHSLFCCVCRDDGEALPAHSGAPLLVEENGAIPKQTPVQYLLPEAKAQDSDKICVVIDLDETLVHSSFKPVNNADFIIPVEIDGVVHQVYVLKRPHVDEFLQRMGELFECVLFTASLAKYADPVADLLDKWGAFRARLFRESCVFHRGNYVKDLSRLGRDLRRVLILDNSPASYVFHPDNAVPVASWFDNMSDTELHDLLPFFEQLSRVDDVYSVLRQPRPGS

[9] = molecular target: 26S proteasome non-ATPase regulatory subunit 14 (Homo sapiens, UniProt O00487); test: inhibition of proteasome subunit RPN11 – biochemical, fluorescence polarization, uHTS hits, confirmation (AID 602368); format: functional
26S proteasome non-ATPase regulatory subunit 14, sequence (O00487 whole entry): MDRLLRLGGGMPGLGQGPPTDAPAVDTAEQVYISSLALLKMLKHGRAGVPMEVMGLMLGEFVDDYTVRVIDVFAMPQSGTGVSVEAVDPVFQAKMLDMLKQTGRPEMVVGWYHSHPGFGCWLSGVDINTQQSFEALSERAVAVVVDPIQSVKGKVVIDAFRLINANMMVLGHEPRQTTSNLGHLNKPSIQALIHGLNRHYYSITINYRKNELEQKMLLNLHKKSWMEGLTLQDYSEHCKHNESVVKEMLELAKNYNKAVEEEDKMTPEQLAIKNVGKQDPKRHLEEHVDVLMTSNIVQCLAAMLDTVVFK

[10] = molecular target: 72 kDa type IV collagenase (Homo sapiens, UniProt P08253); test: Dose Response validation of uHTS RPN11 inhibitor hits using a MMP-2 Fluorescence assay.; format: functional
72 kDa type IV collagenase, sequence (P08253 whole entry): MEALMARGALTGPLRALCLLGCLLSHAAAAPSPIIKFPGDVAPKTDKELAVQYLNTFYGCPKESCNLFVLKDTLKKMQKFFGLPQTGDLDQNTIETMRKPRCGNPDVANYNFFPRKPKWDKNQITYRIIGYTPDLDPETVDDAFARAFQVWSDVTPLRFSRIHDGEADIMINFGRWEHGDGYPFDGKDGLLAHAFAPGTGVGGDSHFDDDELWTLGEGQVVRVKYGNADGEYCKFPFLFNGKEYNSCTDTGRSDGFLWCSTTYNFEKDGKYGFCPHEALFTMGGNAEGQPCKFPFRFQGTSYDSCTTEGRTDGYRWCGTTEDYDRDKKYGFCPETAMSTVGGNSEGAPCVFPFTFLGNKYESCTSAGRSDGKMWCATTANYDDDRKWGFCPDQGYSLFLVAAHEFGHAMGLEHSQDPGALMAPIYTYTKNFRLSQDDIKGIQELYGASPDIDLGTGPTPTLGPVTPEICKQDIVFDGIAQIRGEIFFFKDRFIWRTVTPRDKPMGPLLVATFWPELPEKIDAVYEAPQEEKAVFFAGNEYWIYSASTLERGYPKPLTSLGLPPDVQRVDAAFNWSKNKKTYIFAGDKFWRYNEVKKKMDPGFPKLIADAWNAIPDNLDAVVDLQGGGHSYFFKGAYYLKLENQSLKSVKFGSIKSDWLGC

Prothrombin = Prothrombin (Bos taurus, UniProt P00735); test: thrombin inhibition, dose response, biochemical, fluorescence polarization, uHTS hits (AID 602369); format: functional
[11] = molecular target: T5, Rac GTPase-activating protein 1 (Homo sapiens, UniProt Q9H0H5); test: MgcRacGAP GTPase-activating activity inhibitors, confirmation, biochemical, ADP Hunter fluorescence, primary and confirmatory (AID 624330); format: functional
T5 sequence (Q9H0H5 whole entry): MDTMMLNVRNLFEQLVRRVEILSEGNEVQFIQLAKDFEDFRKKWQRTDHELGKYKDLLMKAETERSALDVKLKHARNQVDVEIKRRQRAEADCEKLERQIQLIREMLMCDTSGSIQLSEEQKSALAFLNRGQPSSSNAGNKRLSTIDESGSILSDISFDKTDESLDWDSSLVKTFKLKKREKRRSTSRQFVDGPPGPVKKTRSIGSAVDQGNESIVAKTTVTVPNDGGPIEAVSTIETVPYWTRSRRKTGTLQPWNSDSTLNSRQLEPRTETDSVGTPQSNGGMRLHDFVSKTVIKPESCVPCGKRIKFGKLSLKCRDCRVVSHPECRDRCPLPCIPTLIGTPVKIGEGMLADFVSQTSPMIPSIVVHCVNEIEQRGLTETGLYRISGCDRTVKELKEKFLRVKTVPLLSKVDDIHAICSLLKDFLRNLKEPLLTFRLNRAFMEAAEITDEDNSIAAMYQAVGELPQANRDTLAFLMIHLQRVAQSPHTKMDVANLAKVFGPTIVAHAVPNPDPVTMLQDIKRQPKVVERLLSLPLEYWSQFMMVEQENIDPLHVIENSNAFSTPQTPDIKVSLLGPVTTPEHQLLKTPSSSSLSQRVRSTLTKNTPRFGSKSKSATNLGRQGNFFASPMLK

[12] = molecular target: Luciferin 4-monooxygenase (Photinus pyralis, UniProt P08659); test: firefly luciferase enzyme inhibitors, dose response, biochemical, luminescence (AID 1891)
Luciferin 4-monooxygenase, sequence (P08659 whole entry): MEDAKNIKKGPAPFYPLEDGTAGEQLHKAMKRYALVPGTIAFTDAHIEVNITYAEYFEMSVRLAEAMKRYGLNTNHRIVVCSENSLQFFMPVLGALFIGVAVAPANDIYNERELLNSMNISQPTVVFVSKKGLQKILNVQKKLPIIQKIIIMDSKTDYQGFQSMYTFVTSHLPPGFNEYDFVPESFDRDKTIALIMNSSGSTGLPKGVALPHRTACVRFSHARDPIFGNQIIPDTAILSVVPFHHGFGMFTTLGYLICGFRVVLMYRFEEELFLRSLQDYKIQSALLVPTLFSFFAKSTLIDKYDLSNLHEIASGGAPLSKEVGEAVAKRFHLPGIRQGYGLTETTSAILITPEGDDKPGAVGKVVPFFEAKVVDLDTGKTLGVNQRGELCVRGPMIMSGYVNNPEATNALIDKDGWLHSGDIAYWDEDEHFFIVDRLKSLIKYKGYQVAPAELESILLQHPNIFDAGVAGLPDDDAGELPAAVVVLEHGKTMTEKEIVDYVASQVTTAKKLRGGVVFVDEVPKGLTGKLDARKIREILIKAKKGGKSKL

[13] = Luminescence Cell-Based Dose Confirmation HTS to Identify Inhibitors of Platelet Dense Granule Release. [Related pubchem assays: 1663 (Primary HTS), 1678 (Summary of Project)]; format: functional
HEK293 = test: inhibitors of LMP1-driven NF-kB reporter, dose response, cell-based, HEK293, luciferase, cherry-pick (AID 588343); format: functional; conditions: Homo sapiens
[14] = ARNT/TACC3 interaction disruptors, potency, confirmation, biochemical, AlphaScreen, cherry-picked samples (AID 651703); format: functional, Homo sapiens;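 note: His-tagged ARNT PAS-B domain paired with GST-TACC3 E629A dimer coactivator fragment; potency of inhibitors that break up the complex and lower AlphaScreen signal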
[15] = A549 cell cytotoxicity, dose response, cytotoxicity control, plate reader, cherry-pick, antagonist series (AID 743412); format: functional, cell-based
[16] = HepG2 cell cytotoxicity, dose response, cytotoxicity control, plate reader, cherry-pick, antagonist series (AID 743416); format: functional, cell-based
[17] = LGR2 antagonists, dose response, cell-based, HEK293, CRE-luciferase reporter, cherry pick, set 2 (AID 743343); format: functional;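 note: transfected cells were stimulated with diluted bursicon conditioned medium after compound addition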
[18] = MC4R antagonists, dose response, counter-screen for LGR2 antagonist project, cell-based, plate reader, cherry pick (AID 743444); format: functional;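 note: transfected HEK 293 cells stimulated with alpha-MSH peptide; potency of inhibitors of the alpha-MSH evoked signal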
[19] = HEK293 cell cytotoxicity, dose response, cytotoxicity control, plate reader, cherry-picked samples (AID 743446); format: functional, cell-based
[20] = Fluorescence-based cell-based high throughput dose response assay for inhibitors of the interaction of nucleotide-binding oligomerization domain containing 2 (NOD2) and the receptor-interacting serine-threonine kinase 2 (RIPK2).; format: functional; conditions: Homo sapiens

IC50 [1]: < 0.368 µM (active)
EC50 [2]: > 53 µM (inactive)
IC50 [3]: 7.38 µM (active)
SMILES: O=C(Nc1nnc(S(=O)(=O)Nc2ccccc2)s1)c1ccccc1Cl

SMILES: O=C(COc1ccc2c3c(c(=O)oc2c1)CCCC3)NCCCN1CCOCC1
IC50 [4]: 35.9 µM (inactive)
IC50 (Steroidogenic factor 1): 35.9 µM (inactive)
IC50 [5]: 35.9 µM (inactive)

SMILES: Cc1n[nH]c(O)c1C(c1c(C)n[nH]c1O)c1cn(C)c2ccccc12
IC50 [6]: 11.9 µM (active)
IC50 [7]: 11.2 µM (active)

IC50 (Aminopeptidase N): 74.9 µM (active)
IC50 (Large T antigen): 35.2 µM (active)
IC50 (Genome polyprotein): 6.33 µM (active)
IC50 [8]: 5.86 µM (active)
IC50 [1]: < 0.368 µM (active)
IC50 [9]: 17.1 µM (active)
EC50 [2]: 10 µM (active)
IC50 [10]: > 100 µM (inactive)
IC50 (Prothrombin): > 100 µM (inactive)
IC50 [3]: 1.47 µM (active)
IC50 [11]: 85.9 µM (active)
SMILES: O=C(O)c1ccc(COc2ccccc2C=C2C(=O)c3ccccc3C2=O)cc1

SMILES: Cc1ccc2[nH]c(-c3ccccn3)nc2c1
EC50 [12]: 2.78 µM (active)
EC50 [13]: 14.7 µM (active)
AC50 (HEK293): 3.34 µM (active)
AC50 [14]: 76 µM (active)
AC50 [15]: 27.3 µM (active)
AC50 [16]: 34.3 µM (active)
AC50 [17]: 5.45 µM (active)
AC50 [18]: 6.67 µM (active)
AC50 [19]: > 52 µM (inactive)

SMILES: O=C1/C(=C/c2ccccc2)CN(C(=O)CCN2CCOCC2)C/C1=C\c1ccccc1
IC50 [20]: 6.29 µM (active)

SMILES: C[C@H](CO)N1C[C@H](C)[C@H](CN(C)Cc2ccncc2)Oc2cc(-c3ccccc3F)ccc2S1(=O)=O
IC50 [4]: 1.33 µM (active)
IC50 (Steroidogenic factor 1): 1.33 µM (active)
IC50 [5]: 15.5 µM (inactive)
